Data on 42 molecules can be found in patent US10150737B2, “Compounds for controlling arthropods” (priority 2013, dated 2018).

The nature of data set [1]: logP determination by HPLC on a reversed-phase column (C18). The format is physicochemical. The following applies: for log P: HPLC-MS; for logP^a): HPLC-MS method a).
A further data set has as its system Phaedon cochleariae. Kind of data set: Phaedon cochleariae - spray test. The format is in vivo. The note with it: larvae on Chinese cabbage leaf discs, after 7 days. The method, then:
Solvent: 78.0 parts by weight of acetone and 1.5 parts by weight of dimethylformamide
Emulsifier: alkylaryl polyglycol ether
To produce an appropriate active ingredient formulation, 1 part by weight of active ingredient is dissolved using the specified parts by weight of solvent and made up with water containing an emulsifier concentration of 1000 ppm until the desired concentration is attained. To produce further test concentrations, the preparation is diluted with emulsifier-containing water.
Discs of Chinese cabbage leaves (Brassica pekinensis) are sprayed with an active ingredient formulation of the desired concentration and, after drying, populated with larvae of the mustard beetle (Phaedon cochleariae).
After 7 days, efficacy in % is determined. 100% means that all the beetle larvae have been killed; 0% means that no beetle larvae have been killed.

In the next data set the test system is Boophilus microplus. Nature of the data set: Boophilus microplus - injection test. The format is in vivo. The note with it: application rate 20 μg/animal, injection into engorged adult female ticks, after 7 days; for pest or weed control at 0.02 mg: Rhipicephalus microplus, 168 h, read-out: efficacy (laying of fertile eggs). The method, then: Solvent: dimethyl sulphoxide
To produce an appropriate active ingredient formulation, 10 mg of active ingredient are mixed with 0.5 ml of solvent and the concentrate is diluted with solvent to the desired concentration.
1 μl of the active ingredient solution is injected into the abdomen of 5 engorged adult female cattle ticks (Boophilus microplus). The animals are transferred into dishes and kept in a climate-controlled room.
Efficacy is assessed after 7 days by laying of fertile eggs. Eggs which are not visibly fertile are stored in a climate-controlled cabinet until the larvae hatch after about 42 days. An efficacy of 100% means that none of the ticks has laid any fertile eggs; 0% means that all the eggs are fertile.

Where [2] appears, read: reversed-phase column (C18), Table I-T3.
The mark [3] stands for this setting: HPLC, C18 reversed phase, acetonitrile/water with formic acid, EEC Directive 79/831 Annex V.A8.

The structures appear in SMILES notation. Like-named read-outs stand apart in the source and are kept apart here.

With `CCSc1cc(C(F)(C(F)(F)F)C(F)(F)F)cc(C)c1-n1cc(-c2ccc(Cl)c(C(=O)NC3(C#N)CC3)c2)cn1` [I-T3-202], the “log P” value in data set [1] (setting [2]) stood at 4.5. As to `N#CC1(NC(=O)c2cc(-c3cnn(-c4ncc(C(F)(C(F)(F)F)C(F)(F)F)cc4SCC(F)(F)F)c3)ccc2Cl)CC1` [I-T3-171], the “log P” value in data set [1] (setting [2]) is recorded as 4.5. The efficacy with Phaedon cochleariae (application rate 100 g/ha) is reported as 100%. In the case of `CN(C(=O)c1cc(-c2cnn(-c3c(I)cc(C(F)(C(F)(F)F)C(F)(F)F)cc3C(F)(F)F)c2)ccc1Cl)C1CC1` [I-T3-229], in data set [1] (setting [2]), the “log P” value amounted to 5.1.

Consider `NC(=S)C1(NC(=O)c2cc(-c3cnn(-c4c(Cl)cc(C(F)(C(F)(F)F)C(F)(F)F)cc4C(F)(F)F)c3)cnc2Cl)CC1` [I-T3-159], for which, in data set [1] (reversed-phase column (C18)), the “logP^a)” value turned out to be 3.8. Further, the “log P” value in data set [1] (setting [2]) was determined as 3.8.

On to `CCSc1cc(C(F)(C(F)(F)F)C(F)(F)F)cc(C)c1-n1cc(-c2ccc(Cl)c(C(=O)NC3CC3)c2)cn1` [I-T3-203], for which the “log P” value in data set [1] (setting [2]) was found to be 4.6. Same read-out and setting: under `N#CC1(NC(=O)c2cc(-c3cnn(-c4c(I)cc(C(F)(C(F)(F)F)C(F)(F)F)cc4C(F)(F)F)c3)ccc2Cl)CC1` [I-T3-228] stands 4.4.

In the case of `CC[S+]([O-])c1cc(C(F)(C(F)(F)F)C(F)(F)F)cnc1-n1cc(-c2ccc(Cl)c(C(=O)NC3(C#N)CC3)c2)cn1` (stereo not shown) [I-T3-153], the “logP^a)” value in data set [1] (reversed-phase column (C18)) worked out at 3.7. In data set [1] (setting [2]), the “log P” value was 3.7. In addition, the efficacy in the data set on Phaedon cochleariae (application rate 100 g/ha) was 100%. Consider `COc1cc(C(F)(F)F)cc(F)c1-n1cc(-c2ccc(Cl)c(C(=O)NC3CC3)c2)cn1` [I-T3-50, 2-chloro-N-cyclopropyl-5-[1-[2-fluoro-6-methoxy-4-(trifluoromethyl)phenyl]pyrazol-4-yl]benzamide], for which the pest or weed control at 0.02 mg with Boophilus microplus is 100%.

With `Cc1cc(C(F)(C(F)(F)F)C(F)(F)F)cc(C)c1-n1cc(-c2cc(C(=O)NC3CC3)c(Cl)cc2F)cn1` [I-T3-14], the “logP^a)” value in data set [1] and in data set [1] (setting [2]) was 4.5 in each case. On to `N#CC1(NC(=O)c2cc(-c3cnn(-c4c(Cl)cc(C(F)(C(F)(F)F)C(F)(F)F)cc4OC(F)F)c3)ccc2Cl)CC1` [I-T3-215], for which, in data set [1] (setting [2]), the “log P” value is recorded as 4.1. As to `CCSc1cc(C(F)(C(F)(F)F)C(F)(F)F)cnc1-n1cc(-c2ccc(Cl)c(C(=O)NC3CC3)c2)cn1` [I-T3-156, 2-Chloro-N-cyclopropyl-5-{1-[3-(ethylsulphanyl)-5-(1,1,1,2,3,3,3-heptafluoropropan-2-yl)pyridin-2-yl]-1H-pyrazol-4-yl}benzamide], in data set [1] (reversed-phase column (C18)), the “logP^a)” value is reported as 4.7. For the same molecule, in data set [1] (setting [2]), the “log P” value was 4.7. Turning to `CC[S+]([O-])c1cc(C(F)(C(F)(F)F)C(F)(F)F)cc(C)c1-n1cc(-c2ccc(Cl)c(C(=O)NC3(C#N)CC3)c2)cn1` (stereo not shown) [I-T3-206], in data set [1] (setting [2]), the “log P” value was 3.6. The same measure, in the same setting: under `CN(C(=O)c1cc(-c2cnn(-c3c(Cl)cc(C(F)(C(F)(F)F)C(F)(F)F)cc3OC(F)(F)F)c2)cnc1Cl)C1CC1` [I-T3-208] stands 4.6.

Turning to `CCS(=O)(=O)c1cc(C(F)(C(F)(F)F)C(F)(F)F)cc(C)c1-n1cc(-c2ccc(Cl)c(C(=O)NC3(C#N)CC3)c2)cn1` [I-T3-209], the “log P” value in data set [1] (setting [2]) is reported as 3.8.

As to `NC(=O)C1(NC(=O)c2cc(-c3cnn(-c4c(F)c(F)c(C(F)(F)F)c(F)c4F)c3)ccc2Cl)CC1` [I-T3-194], the “log P” value in data set [1] (setting [2]) was 2.8. The same measure, in the same setting: under `CSc1cc(C(F)(C(F)(F)F)C(F)(F)F)cnc1-n1cc(-c2ccc(Cl)c(C(=O)NC3(C#N)CC3)c2)cn1` [I-T3-166] stands 4.3. In the case of `N#CC1(NC(=O)c2cc(-c3cnn(-c4c(F)c(F)c(C(F)(F)F)c(F)c4F)c3)ccc2Cl)CC1` [I-T3-188], in data set [1] (setting [2]), the “log P” value is given as 3.4. Moreover, the efficacy in the data set with Phaedon cochleariae (application rate 500 g/ha) was 100%.

Consider `N#CC1(NC(=O)c2cc(-c3cnn(-c4c(I)cc(C(F)(C(F)(F)F)C(F)(F)F)cc4OC(F)(F)F)c3)ccc2Cl)CC1` [I-T3-226], for which the “log P” value in data set [1] (setting [2]) is reported as 4.6. The same measure, in the same setting: under `O=C(NC1CC1)c1cc(-c2cnn(-c3c(I)cc(C(F)(C(F)(F)F)C(F)(F)F)cc3C(F)(F)F)c2)ccc1Cl` [I-T3-227] stands 4.5; under `CCS(=O)(=O)c1cc(C(F)(C(F)(F)F)C(F)(F)F)cc(C)c1-n1cc(-c2ccc(Cl)c(C(=O)NC3CC3)c2)cn1` [I-T3-210], 3.9; under `CCOc1cc(C(F)(C(F)(F)F)C(F)(F)F)cc(OCC)c1-n1cc(-c2cnc(Cl)c(C(=O)N(C)C3CC3)c2)cn1` [I-T3-211], 4.7. As to `Cc1cc(C(F)(C(F)(F)F)C(F)(F)F)cc(C)c1-c1ccn(-c2ccc(Cl)c(C(=O)NC3CC3)c2)n1` [I-T2-1, 2-chloro-N-cyclopropyl-5-[3-[2,6-dimethyl-4-[1,2,2,2-tetrafluoro-1-(trifluoromethyl)ethyl]phenyl]pyrazol-1-yl]benzamide], the pest or weed control at 0.02 mg in the data set on Boophilus microplus stood at 100%. In the case of `CCS(=O)(=O)c1cc(C(F)(C(F)(F)F)C(F)(F)F)cc(Cl)c1-n1cc(-c2ccc(Cl)c(C(=O)NC3(C#N)CC3)c2)cn1` [I-T3-201], the “log P” value in data set [1] (setting [2]) is 4.0. On to `CN(C(=O)c1cc(-c2cnn(-c3c(Cl)cc(C(F)(C(F)(F)F)C(F)(F)F)cc3OC(F)(F)F)c2)ccc1Cl)C1CC1` [I-T3-219], for which, in data set [1] (setting [2]), the “log P” value came out at 5.1. On the same count and under the same terms, the value for `N#CC1(NC(=O)c2cc(-c3cnn(-c4c(Cl)cc(C(F)(C(F)(F)F)C(F)(F)F)cc4OC(F)F)c3)cnc2Cl)CC1` [I-T3-218] was 3.7. Consider `CC[S+]([O-])c1cc(C(F)(C(F)(F)F)C(F)(F)F)cnc1-n1cc(-c2ccc(Cl)c(C(=O)NC3CC3)c2)cn1` (stereo not shown) [I-T3-157, 2-Chloro-N-cyclopropyl-5-{1-[3-(ethylsulphinyl)-5-(1,1,1,2,3,3,3-heptafluoropropan-2-yl)pyridin-2-yl]-1H-pyrazol-4-yl}benzamide], for which the “logP^a)” value in data set [1] (reversed-phase column (C18)) is listed as 3.8. Besides, the “log P” value in data set [1] (setting [2]) came to 3.8. For the molecule `CN(C(=O)c1cc(-c2cnn(-c3c(Cl)cc(C(O)(C(F)(F)F)C(F)(F)F)cc3Cl)c2)cnc1Cl)C1CC1` [I-T3-220], the “log P” value in data set [1] (setting [2]) came to 3.4. The efficacy in the data set on Phaedon cochleariae (application rate 100 g/ha) worked out at 100%.

With `N#CC1(NC(=O)c2cc(-c3cnn(-c4c(Cl)cc(C(F)(C(F)(F)F)C(F)(F)F)cc4I)c3)ccc2Cl)CC1` [I-T3-212], the “log P” value in data set [1] (setting [2]) was found to be 4.3. On the same count and under the same terms, the value for `CN(C(=O)c1cc(-c2cnn(-c3c(I)cc(C(F)(C(F)(F)F)C(F)(F)F)cc3OC(F)(F)F)c2)ccc1Cl)C1CC1` [I-T3-225] was 5.2; that for `CN(C(=O)c1cc(-c2cnn(-c3c(Cl)cc(C(F)(C(F)(F)F)C(F)(F)F)cc3OC(F)F)c2)ccc1Cl)C1CC1` [I-T3-216] was 4.7. In the case of `O=C(NC1CC1)c1cc(-c2cnn(-c3c(Cl)cc(C(F)(C(F)(F)F)C(F)(F)F)cc3OC(F)F)c2)ccc1Cl` [I-T3-214], in data set [1] (setting [2]), the “log P” value is on record as 4.3. Take `O=C(NC1CC1)c1cc(-c2cnn(-c3c(Cl)cc(C(F)(C(F)(F)F)C(F)(F)F)cc3C(F)F)c2)ccc1Cl` [I-T3-193]: the log partition coefficient (log P) in data set [1] (setting [2]) is reported as 4.4. On the same count and under the same terms, the value for `N#Cc1cc(C(F)(C(F)(F)F)C(F)(F)F)cc(Cl)c1-n1cc(-c2cnc(Cl)c(C(=O)NC3(C#N)CC3)c2)cn1` [I-T3-207] was 3.5; that for `N#Cc1cc(C(F)(C(F)(F)F)C(F)(F)F)cc(Cl)c1-n1cc(-c2cnc(Cl)c(C(=O)NC3CC3)c2)cn1` [I-T3-205] was 3.5; that for `CN(C(=O)c1cc(-c2cnn(-c3c(Cl)cc(C(F)(C(F)(F)F)C(F)(F)F)cc3C#N)c2)cnc1Cl)C1CC1` [I-T3-204] was 3.9. In data set [1], `Nc1c(Cl)cc(C(O)(C(F)(F)F)C(F)(F)F)cc1Cl` [2-(4-amino-3,5-dichlorphenyl)-1,1,1,3,3,3-hexafluoropropan-2-ol] showed a logP of 3.04.

With `O=C(NC1CC1)c1cc(-c2cnn(-c3c(I)cc(C(F)(C(F)(F)F)C(F)(F)F)cc3OC(F)(F)F)c2)ccc1Cl` [I-T3-224], the log partition coefficient (log P) in data set [1] (setting [2]) came out at 4.7. For `CN(C(=O)c1cc(-c2cnn(-c3ccc(C(F)(C(F)(F)F)C(F)(F)F)cc3C(F)(F)F)c2)ccc1Cl)C1CC1` [I-T3-134], the logP in data set [1] (setting [3]) stood at 4.88. Moreover, the “logP^a)” value in data set [1] (reversed-phase column (C18)) is recorded as 4.9. Moreover, the “log P” value in data set [1] (setting [2]) is given as 4.9.

As for `O=C(NC1CC1)c1cc(-c2cnn(-c3c(Cl)cc(C(F)(C(F)(F)F)C(F)(F)F)cc3I)c2)ccc1Cl` [I-T3-213], in data set [1] (setting [2]), the “log P” value is 4.4.

Consider `CN(C(=O)c1cc(-c2cnn(-c3c(Cl)cc(C(F)(C(F)(F)F)C(F)(F)F)cc3OC(F)F)c2)cnc1Cl)C1CC1` [I-T3-217], for which the “log P” value in data set [1] (setting [2]) is reported as 4.2. On to `Cc1cc(C(F)(C(F)(F)F)C(F)(F)F)cc(C)c1-n1ccc(-c2ccc(Cl)c(C(=O)NC3(C#N)CC3)c2)c1` [I-T46-1], for which the logP in data set [1] (setting [3]) was determined as 4.90. For `Cc1cc(C(F)(C(F)(F)F)C(F)(F)F)cc(C)c1-n1cc(-c2cnc(C3CC3)c(C(=O)N(C)C3CC3)c2)cn1` [I-T3-142], in data set [1] (reversed-phase column (C18)), the “logP^a)” value is reported as 4.6. Moreover, the “log P” value in data set [1] (setting [2]) is 4.6. Besides, the “efficacy (laying of fertile eggs)” value in the data set with Boophilus microplus is 100%.
